# Results reported in ChEMBL document CHEMBL1155532 (Bioorg Med Chem Lett, 2010).
# Experiments:
# [1] = target: T1, Fatty acid-binding protein, adipocyte (Homo sapiens, UniProt P15090); experiment: Displacement of 8-anilino-1-naphthalene-sulfonic acid from human His-FABP4 expressed in Escherichia coli BL21 (DE3) cells at 100 uM after 3 mins
# Target sequence in this assay (P15090 2-132 limits assumed): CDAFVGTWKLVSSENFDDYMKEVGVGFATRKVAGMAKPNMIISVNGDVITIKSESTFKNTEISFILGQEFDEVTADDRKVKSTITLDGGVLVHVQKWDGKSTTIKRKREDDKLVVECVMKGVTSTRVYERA
# [2] = target: T1, Fatty acid-binding protein, adipocyte; experiment: Displacement of 8-anilino-1-naphthalene-sulfonic acid from human His-FABP4 expressed in Escherichia coli BL21 (DE3) cells after 3 mins
# Target sequence in this assay (P15090 whole entry): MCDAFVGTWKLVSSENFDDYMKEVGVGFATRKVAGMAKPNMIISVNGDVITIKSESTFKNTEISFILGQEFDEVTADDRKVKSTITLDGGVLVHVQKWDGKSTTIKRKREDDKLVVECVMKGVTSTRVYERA
# [3] = target: Fatty acid-binding protein, heart (Homo sapiens, UniProt P05413); experiment: Displacement of 8-anilino-1-naphthalene-sulfonic acid from human His-FABP3 expressed in Escherichia coli BL21 (DE3) cells after 3 mins relative to linoleic acid
# Homo sapiens [4] = species on record: Homo sapiens; experiment: Selectivity index, ratio of IC50 for His-human FABP3 to IC50 for human His-FABP4
# [5] = target: T1, Fatty acid-binding protein, adipocyte; experiment: Displacement of 8-anilino-1-naphthalene-sulfonic acid from human His-FABP4 expressed in Escherichia coli BL21 (DE3) cells after 3 mins relative to linoleic acid
# Target sequence in this assay (P15090 whole entry): as above
# [6] = Displacement of 8-anilino-1-naphthalene-sulfonic acid from human FABP4 F16A mutant expressed in Escherichia coli BL21 (DE3) cells after 3 mins
# Homo sapiens [7] = species on record: Homo sapiens; experiment: Selectivity ratio of IC50 for human FABP4 F106A mutant to IC50 for human wild type FABP4
# Homo sapiens [8] = species on record: Homo sapiens; experiment: Selectivity ratio of IC50 for human FABP4 F126A mutant to IC50 for human wild type FABP4
# BL21-DE3 [9] = experiment: Displacement of 8-anilino-1-naphthalene-sulfonic acid from human FABP4 F16A mutant expressed in Escherichia coli BL21 (DE3) cells at 500 uM after 3 mins
# BL21-DE3 [10] = experiment: Displacement of 8-anilino-1-naphthalene-sulfonic acid from human FABP4 F16A mutant expressed in Escherichia coli BL21 (DE3) cells at 700 uM after 3 mins
# Sequence of Fatty acid-binding protein, heart (P05413 whole entry): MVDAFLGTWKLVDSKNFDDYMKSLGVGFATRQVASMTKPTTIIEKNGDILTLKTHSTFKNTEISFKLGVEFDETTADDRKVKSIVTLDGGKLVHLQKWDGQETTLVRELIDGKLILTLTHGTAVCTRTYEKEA
Compound,inhibition [1] [%],IC50 [2] [µM],IC50 [3] [µM],Ratio IC50 (Homo sapiens [4]),IC50 [5] [µM],IC50 [6] [µM],Ratio IC50 (Homo sapiens [7]),Ratio IC50 (Homo sapiens [8]),inhibition (BL21-DE3 [9]) [%],inhibition (BL21-DE3 [10]) [%]
O=C(O)CSCC(=O)NCc1c(Cl)cccc1Oc1ccccc1,62.5,42.2,1.9,0.6,3.1,76.5,3.4,6.6,,
O=[N+]([O-])c1ccc(S(=O)(=O)c2ccccc2)cc1OS(=O)(=O)c1cc(Cl)cc(Cl)c1,40.7,> 100,,,,,,,,
O=C(O)CSCC(=O)NCc1ccccc1N1CCCCC1,58.7,56.3,6.3,1.5,4.1,,,,,
O=c1[nH]nc(SCCS(=O)(=O)c2ccc(Cl)cc2Cl)n1-c1ccc2c(c1)OCCO2,37.1,> 100,,,,,,,,
COc1ccc(-c2c(C(F)(F)F)nn(C)c2NC(=O)CSCC(=O)O)cc1,20.1,> 100,,,,,,,,
Cc1ccc(SC(CC(=O)c2ccc(C)cc2)C(=O)O)cc1 (stereo not drawn),44.4,> 100,,,,,,,,
c1cc(CSc2nc3ccccc3[nH]2)nc(CSc2nc3ccccc3[nH]2)c1,47.7,> 100,,,,,,,,
O=C(O)CSCC(=O)Nc1cc(Cl)cc(Cl)c1,84.9,13.5,> 144,> 144,1,,1.3,11.1,50.7,57

# Now from value to compound, other results behind:
inhibition [1] [%],IC50 [2] [µM],IC50 [3] [µM],Ratio IC50 (Homo sapiens [4]),IC50 [5] [µM],IC50 [6] [µM],Ratio IC50 (Homo sapiens [7]),Ratio IC50 (Homo sapiens [8]),Compound,inhibition (BL21-DE3 [9]) [%],inhibition (BL21-DE3 [10]) [%]
66.8,,,,,,,,CCCCCCCC/C=C\CCCCCCCC(=O)O,,
81.4,,,,,,,,CCCCC/C=C\C/C=C\CCCCCCCC(=O)O,36.9,39
46.9,> 100,,,,,,,COC(=O)c1cc(OC)c(OC)cc1NC(=O)CSCC(=O)O,,
56.2,59.5,> 432,> 99,4.4,,,,O=C(O)CSCC(=O)Nc1ccc(F)c(Cl)c1,,
